# Measured values taken from PubChem BioAssay AID1745844 (Carcinogenic Potency Database (CPDB), 2022).
# Active and inactive are the calls of the source. How the calls were made is not given here.
# System: rodent lifetime carcinogenesis bioassay, tumor incidence TD50
# Assay: chronic cancer bioassays in animals – CPDB, compiled studies (AID 1745844)
structure (smiles),measurement,setting,value
C[C@]12CC[C@@H]3c4ccc(OC(=O)Cc5ccc(N(CCCl)CCCl)cc5)cc4CC[C@H]3[C@@H]1CC[C@@H]2OC(=O)Cc1ccc(N(CCCl)CCCl)cc1,TD50,"mouse, strain B6C3F1, females, by gavage, site: all sites + lung + myocardium + stomach, lesion: lymphoma + alveolar/bronchiolar adenoma + alveolar/bronchiolar carcinoma + sarcoma, NOS + squamous-cell carcinoma, dosed 52 weeks, study length 84 weeks",0.682 mg/kg/day
same,TD50,"mouse, strain B6C3F1, females, by gavage, site: all sites, lesion: lymphoma, dosed 52 weeks, study length 82 weeks",2.23 mg/kg/day
same,TD50,"mouse, strain B6C3F1, females, by gavage, site: all sites, lesion: lymphoma, dosed 52 weeks, study length 84 weeks",2.34 mg/kg/day
same,TD50,"mouse, strain B6C3F1, females, by gavage, site: any site (literature study), lesion: several types, types named in the paper, dosed 52 weeks, study length 84 weeks",0.562 mg/kg/day
same,TD50,"mouse, strain B6C3F1, females, by gavage, site: lung, lesion: alveolar/bronchiolar adenoma + alveolar/bronchiolar carcinoma, dosed 52 weeks, study length 82 weeks",1.28 mg/kg/day
same,TD50,"mouse, strain B6C3F1, females, by gavage, site: lung, lesion: alveolar/bronchiolar adenoma + alveolar/bronchiolar carcinoma, dosed 52 weeks, study length 84 weeks",1.14 mg/kg/day
same,TD50,"mouse, strain B6C3F1, females, by gavage, site: lung, lesion: alveolar/bronchiolar carcinoma, dosed 52 weeks, study length 82 weeks",2.87 mg/kg/day
same,TD50,"mouse, strain B6C3F1, females, by gavage, site: mammary gland, lesion: adenocarcinoma, NOS + carcinoma, NOS, dosed 52 weeks, study length 82 weeks",12.8 mg/kg/day
same,TD50,"mouse, strain B6C3F1, females, by gavage, site: mammary gland, lesion: adenocarcinoma, NOS + carcinoma, NOS, dosed 52 weeks, study length 84 weeks",13.4 mg/kg/day
same,TD50,"mouse, strain B6C3F1, females, by gavage, site: myocardium, lesion: sarcoma, NOS, dosed 52 weeks, study length 82 weeks",3.22 mg/kg/day
same,TD50,"mouse, strain B6C3F1, females, by gavage, site: myocardium, lesion: sarcoma, NOS, dosed 52 weeks, study length 84 weeks",3.01 mg/kg/day
same,TD50,"mouse, strain B6C3F1, females, by gavage, site: stomach, lesion: squamous-cell carcinoma, dosed 52 weeks, study length 84 weeks",5.17 mg/kg/day
same,TD50,"mouse, strain B6C3F1, males, by gavage, site: all sites + stomach, lesion: leukemia + lymphoma + squamous-cell carcinoma, dosed 52 weeks, study length 83 weeks",4.1 mg/kg/day
same,TD50,"mouse, strain B6C3F1, males, by gavage, site: all sites, lesion: leukemia + lymphoma, dosed 52 weeks, study length 81 weeks",4.31 mg/kg/day
same,TD50,"mouse, strain B6C3F1, males, by gavage, site: all sites, lesion: leukemia + lymphoma, dosed 52 weeks, study length 83 weeks",4.39 mg/kg/day
same,TD50,"mouse, strain B6C3F1, males, by gavage, site: any site (literature study), lesion: several types, types named in the paper, dosed 52 weeks, study length 83 weeks",1.96 mg/kg/day
same,TD50,"mouse, strain B6C3F1, males, by gavage, site: lung, lesion: alveolar/bronchiolar adenoma + alveolar/bronchiolar carcinoma, dosed 52 weeks, study length 81 weeks",1.99 mg/kg/day
same,TD50,"mouse, strain B6C3F1, males, by gavage, site: lung, lesion: alveolar/bronchiolar adenoma + alveolar/bronchiolar carcinoma, dosed 52 weeks, study length 83 weeks",2.34 mg/kg/day
same,TD50,"mouse, strain B6C3F1, males, by gavage, site: lung, lesion: alveolar/bronchiolar carcinoma, dosed 52 weeks, study length 81 weeks",3.61 mg/kg/day
same,TD50,"mouse, strain B6C3F1, males, by gavage, site: myocardium, lesion: sarcoma, NOS, dosed 52 weeks, study length 81 weeks",5.55 mg/kg/day
same,TD50,"mouse, strain B6C3F1, males, by gavage, site: stomach, lesion: squamous-cell carcinoma, dosed 52 weeks, study length 83 weeks",29 mg/kg/day
same,TD50,"rat, strain Sprague-Dawley, females, by gavage, site: any site (literature study), lesion: several types, types named in the paper, dosed 52 weeks, study length 85 weeks",0.189 mg/kg/day (inactive)
same,TD50,"rat, strain Sprague-Dawley, males, by gavage, site: any site (literature study), lesion: several types, types named in the paper, dosed 52 weeks, study length 85 weeks",3.85 mg/kg/day (inactive)
same,TD50,"rat, strain Sprague-Dawley, males, by gavage, site: mammary gland, lesion: fibroadenoma, dosed 52 weeks, study length 85 weeks",0.756 mg/kg/day (inactive)
CC,carcinogen call,"mouse, strain B6C3F1, females, in feed, site: any site (literature study), lesion: several types, types named in the paper, dosed 103 weeks, study length 105 weeks",negative (inactive)
same,TD50,"mouse, strain B6C3F1, females, in feed, site: forestomach, lesion: several types, types named in the paper, dosed 96 weeks, study length 106 weeks",111000 mg/kg/day (inactive)
same,TD50,"mouse, strain B6C3F1, females, in feed, site: liver, lesion: hepatocellular adenoma + hepatocellular carcinoma + neoplastic nodule, dosed 103 weeks, study length 105 weeks",31100 mg/kg/day
same,carcinogen call,"mouse, strain B6C3F1, females, in feed, site: liver, lesion: several types, types named in the paper, dosed 96 weeks, study length 106 weeks",negative (inactive)
same,TD50,"mouse, strain B6C3F1, females, in feed, site: lung, lesion: alveolar/bronchiolar adenoma + alveolar/bronchiolar carcinoma, dosed 103 weeks, study length 105 weeks",24700 mg/kg/day
same,carcinogen call,"mouse, strain B6C3F1, females, in feed, site: lung, lesion: several types, types named in the paper, dosed 96 weeks, study length 106 weeks",negative (inactive)
same,TD50,"mouse, strain B6C3F1, males, in feed, site: all sites, lesion: hemangioma, dosed 103 weeks, study length 105 weeks",80800 mg/kg/day (inactive)
same,TD50,"mouse, strain B6C3F1, males, in feed, site: any site (literature study), lesion: several types, types named in the paper, dosed 103 weeks, study length 105 weeks",46000 mg/kg/day
same,TD50,"mouse, strain B6C3F1, males, in feed, site: forestomach, lesion: squamous-cell papilloma, dosed 96 weeks, study length 106 weeks",240000 mg/kg/day (inactive)
same,carcinogen call,"mouse, strain B6C3F1, males, in feed, site: liver, lesion: several types, types named in the paper, dosed 96 weeks, study length 106 weeks",negative (inactive)
same,carcinogen call,"mouse, strain B6C3F1, males, in feed, site: lung, lesion: several types, types named in the paper, dosed 96 weeks, study length 106 weeks",negative (inactive)
same,TD50,"rat, strain Fischer 344, females, in feed, site: any site (literature study), lesion: several types, types named in the paper, dosed 103 weeks, study length 105 weeks",8310 mg/kg/day (inactive)
same,TD50,"rat, strain Fischer 344, males, in feed, site: any site (literature study), lesion: several types, types named in the paper, dosed 103 weeks, study length 105 weeks",7970 mg/kg/day (inactive)
same,TD50,"rat, strain Fischer 344, males, in feed, site: liver, lesion: hepatocellular adenoma + hepatocellular carcinoma + neoplastic nodule, dosed 103 weeks, study length 105 weeks",33500 mg/kg/day
